Test results: patent US20240360134A1, “PYRAZOLOPYRIMIDINES AND THEIR USES AS PDGFR INHIBITORS” (priority 2021, published 2024)

Key:
[1] = molecular target: Tb-labeled inactive PDGFRβ (Homo sapiens (Human), UniProt P09619); experiment: biochemical; assay type: binding; details: read-out: PDGFR Lantha IC50
[2] = molecular target: His6-TEV-PDGFRβ (557-1016) (Homo sapiens (Human), UniProt P09619); experiment: PDGFRβ HTRF Assay; assay type: biochemical; details: 800 μM ATP, 0.5 μM TK-substrate biotin peptide, 30 min pre-incubation, 3 hours reaction; read-out: PDGFR HTRF IC50
VEGFR2, unphosphorylated = VEGFR2, unphosphorylated (Homo sapiens (Human), UniProt P35968); experiment: VEGFR ADP GLO assay; assay type: biochemical; details: 5 nM VEGFR2, 1.2 mM ATP, 1 mg/mL Srctide, 180 min
Method in brief: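 Luminescent ADP detection after a 180-min room-temperature reaction of srctide plus ATP (2 mg/mL and 2.4 mM in 2× mix) in pH 7.5 HEPES buffer with DTT, Pluronic and ovalbumin. Compounds, 11 points from 10 µM, first pre-incubated 30 min with enzyme (2× mix 10 nM). IC50s fitted after scaling between DMSO and 1 µM TAK-593 controls.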

PDGFRβ = PDGFRβ (Rattus norvegicus (Rat), UniProt Q05030); experiment: PDGFRβ Cellular Assay (PDGFRb P-Y751 HTRF, PDGF-BB stimulated A10 cells); assay type: cell-based; details: A10 cells, 3 hours compound, 15 ng/mL PDGFbb for 10 minutes; read-out: PDGFR Cellular IC50
Method in brief: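 Rat A10 cells plated overnight were treated with compound for 3 h, stimulated with rat PDGF-BB (working stock 100 ng/mL in 10% FBS medium) for 10 min, then lysed.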

His6-TEV-PDGFRβ (557-1016), sequence (P09619 whole entry, looked up): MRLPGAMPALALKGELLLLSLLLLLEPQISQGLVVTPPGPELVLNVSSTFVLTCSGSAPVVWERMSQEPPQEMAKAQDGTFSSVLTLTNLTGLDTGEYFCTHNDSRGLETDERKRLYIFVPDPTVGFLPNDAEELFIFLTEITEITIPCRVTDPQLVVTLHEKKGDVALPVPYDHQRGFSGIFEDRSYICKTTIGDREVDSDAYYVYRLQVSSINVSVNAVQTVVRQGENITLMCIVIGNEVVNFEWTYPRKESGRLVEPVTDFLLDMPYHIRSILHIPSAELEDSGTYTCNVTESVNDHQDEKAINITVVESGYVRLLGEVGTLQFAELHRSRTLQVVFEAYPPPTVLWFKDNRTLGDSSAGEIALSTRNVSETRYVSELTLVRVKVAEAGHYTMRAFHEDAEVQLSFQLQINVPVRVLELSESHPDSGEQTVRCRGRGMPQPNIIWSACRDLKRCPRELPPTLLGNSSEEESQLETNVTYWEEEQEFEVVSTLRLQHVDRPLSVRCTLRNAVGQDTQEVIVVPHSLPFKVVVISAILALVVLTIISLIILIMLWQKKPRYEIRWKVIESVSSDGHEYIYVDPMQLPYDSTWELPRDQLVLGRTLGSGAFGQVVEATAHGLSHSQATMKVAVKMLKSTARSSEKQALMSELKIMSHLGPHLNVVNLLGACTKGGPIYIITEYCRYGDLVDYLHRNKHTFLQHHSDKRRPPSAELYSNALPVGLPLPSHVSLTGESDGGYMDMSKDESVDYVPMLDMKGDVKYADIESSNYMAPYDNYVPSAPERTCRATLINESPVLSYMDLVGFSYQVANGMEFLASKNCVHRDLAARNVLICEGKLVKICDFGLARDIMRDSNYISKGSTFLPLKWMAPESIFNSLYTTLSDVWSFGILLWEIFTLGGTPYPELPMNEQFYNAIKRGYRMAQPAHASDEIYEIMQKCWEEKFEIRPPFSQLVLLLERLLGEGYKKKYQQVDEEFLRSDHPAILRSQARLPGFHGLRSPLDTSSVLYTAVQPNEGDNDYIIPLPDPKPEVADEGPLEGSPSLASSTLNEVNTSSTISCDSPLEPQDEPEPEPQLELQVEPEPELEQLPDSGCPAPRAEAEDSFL
Tb-labeled inactive PDGFRβ, sequence (P09619 whole entry, looked up): as above
PDGFRβ, sequence (Q05030 whole entry, looked up): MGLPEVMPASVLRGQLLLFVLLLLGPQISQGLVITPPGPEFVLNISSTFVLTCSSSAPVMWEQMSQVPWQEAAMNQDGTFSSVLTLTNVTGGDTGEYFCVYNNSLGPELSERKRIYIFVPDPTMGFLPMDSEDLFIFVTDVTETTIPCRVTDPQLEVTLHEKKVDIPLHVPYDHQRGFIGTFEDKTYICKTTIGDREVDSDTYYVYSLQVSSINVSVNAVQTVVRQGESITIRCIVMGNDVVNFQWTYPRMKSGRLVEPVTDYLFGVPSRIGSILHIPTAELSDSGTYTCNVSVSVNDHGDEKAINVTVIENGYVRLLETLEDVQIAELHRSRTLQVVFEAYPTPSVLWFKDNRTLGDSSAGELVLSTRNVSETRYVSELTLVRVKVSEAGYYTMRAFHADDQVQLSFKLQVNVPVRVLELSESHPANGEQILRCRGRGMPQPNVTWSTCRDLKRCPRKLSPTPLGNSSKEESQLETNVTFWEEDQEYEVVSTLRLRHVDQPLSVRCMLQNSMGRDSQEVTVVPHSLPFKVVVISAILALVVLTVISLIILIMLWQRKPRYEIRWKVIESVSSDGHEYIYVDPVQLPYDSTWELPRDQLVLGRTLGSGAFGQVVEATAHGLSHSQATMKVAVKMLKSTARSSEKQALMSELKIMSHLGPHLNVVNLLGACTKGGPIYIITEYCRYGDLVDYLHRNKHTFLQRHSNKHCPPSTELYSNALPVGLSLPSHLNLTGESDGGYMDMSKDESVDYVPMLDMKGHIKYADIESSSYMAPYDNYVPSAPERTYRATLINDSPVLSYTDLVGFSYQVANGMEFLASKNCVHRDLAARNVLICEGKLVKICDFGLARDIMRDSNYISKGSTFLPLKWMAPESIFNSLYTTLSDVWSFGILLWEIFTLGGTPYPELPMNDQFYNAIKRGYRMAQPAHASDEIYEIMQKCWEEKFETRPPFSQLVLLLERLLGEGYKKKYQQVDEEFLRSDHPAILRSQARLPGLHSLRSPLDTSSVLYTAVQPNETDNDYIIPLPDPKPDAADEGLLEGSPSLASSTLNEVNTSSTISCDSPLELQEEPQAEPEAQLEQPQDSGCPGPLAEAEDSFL
VEGFR2, unphosphorylated, sequence (P35968 whole entry, looked up): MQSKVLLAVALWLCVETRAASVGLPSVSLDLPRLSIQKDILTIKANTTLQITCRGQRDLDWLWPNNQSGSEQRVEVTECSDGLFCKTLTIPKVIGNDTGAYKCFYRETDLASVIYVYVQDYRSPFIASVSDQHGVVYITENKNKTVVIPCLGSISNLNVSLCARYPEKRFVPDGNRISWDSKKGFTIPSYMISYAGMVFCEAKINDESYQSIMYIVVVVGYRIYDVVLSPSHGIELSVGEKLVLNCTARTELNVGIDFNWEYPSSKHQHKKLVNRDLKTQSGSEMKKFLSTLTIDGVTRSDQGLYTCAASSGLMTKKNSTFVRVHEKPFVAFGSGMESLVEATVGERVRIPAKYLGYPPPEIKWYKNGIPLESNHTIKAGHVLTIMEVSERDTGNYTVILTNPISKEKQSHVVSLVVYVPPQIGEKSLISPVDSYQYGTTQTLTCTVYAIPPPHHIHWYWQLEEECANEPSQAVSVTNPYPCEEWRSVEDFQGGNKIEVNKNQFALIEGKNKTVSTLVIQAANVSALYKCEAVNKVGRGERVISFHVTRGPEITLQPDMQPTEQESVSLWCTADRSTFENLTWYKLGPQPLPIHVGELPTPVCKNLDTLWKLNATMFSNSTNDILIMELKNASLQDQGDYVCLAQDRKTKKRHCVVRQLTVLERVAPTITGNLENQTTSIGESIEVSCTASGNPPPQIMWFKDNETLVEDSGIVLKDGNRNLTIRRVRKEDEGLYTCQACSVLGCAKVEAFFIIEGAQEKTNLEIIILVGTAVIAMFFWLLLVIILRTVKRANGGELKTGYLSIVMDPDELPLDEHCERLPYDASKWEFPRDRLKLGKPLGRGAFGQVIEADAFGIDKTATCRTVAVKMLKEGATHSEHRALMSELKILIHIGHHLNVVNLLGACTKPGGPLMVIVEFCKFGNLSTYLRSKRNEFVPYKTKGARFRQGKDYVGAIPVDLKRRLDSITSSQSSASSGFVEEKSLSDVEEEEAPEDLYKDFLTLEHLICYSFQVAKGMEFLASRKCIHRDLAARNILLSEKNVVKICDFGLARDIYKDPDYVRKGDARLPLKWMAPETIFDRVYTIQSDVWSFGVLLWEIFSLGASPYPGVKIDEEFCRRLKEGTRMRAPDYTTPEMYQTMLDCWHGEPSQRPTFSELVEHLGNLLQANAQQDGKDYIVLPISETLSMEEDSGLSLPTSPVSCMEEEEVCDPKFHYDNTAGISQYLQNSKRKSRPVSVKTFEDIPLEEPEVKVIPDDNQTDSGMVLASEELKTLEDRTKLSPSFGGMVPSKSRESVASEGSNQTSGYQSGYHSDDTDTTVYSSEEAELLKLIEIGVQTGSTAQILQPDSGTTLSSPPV

Row | Compound | IC50 [1] [nM] | IC50 [2] [nM] | IC50 (VEGFR2, unphosphorylated) [nM] | IC50 (PDGFRβ) [nM]
1 | Cc1ncc(NC(=O)NCCN2CCCC2(C)C)cc1Nc1nn(C)c2nc(Nc3cncnc3)ncc12 [Example 16, 1-(2-(2,2-dimethylpyrrolidin-1-yl)ethyl)-3-(6-methyl-5-((1-methyl-6-(pyrimidin-5-ylamino)-1H-pyrazolo[3,4-d]pyrimidin-3-yl)amino)pyridin-3-yl)urea] | 18.5 | 1.36 | > 7500 | 1480
2 | Cc1ncc(C(=O)NCCN2CCCC[C@H]2C)cc1Nc1nn(C)c2nc(Nc3cncnc3)ncc12 [Example 11, (R)-6-methyl-5-((1-methyl-6-(pyrimidin-5-ylamino)-1H-pyrazolo[3,4-d]pyrimidin-3-yl)amino)-N-(2-(2-methylpiperidin-1-yl)ethyl)nicotinamide] | 5.8 | 0.68 | ~6630 | 68.8
3 | Cc1ncc(C(=O)NCCN2C[C@H](C)O[C@@H](C)C2)cc1Nc1nn(C)c2nc(Nc3ccnc(N4CCC(CCO)CC4)c3)ncc12 [Example 112, N-(2-((2S,6S)-2,6-dimethylmorpholino)ethyl)-5-((6-((2-(4-(2-hydroxyethyl)piperidin-1-yl)pyridin-4-yl)amino)-1-methyl-1H-pyrazolo[3,4-d]pyrimidin-3-yl)amino)-6-methylnicotinamide] | 4.5 | 0.57 | > 7500 | 84.4
4 | Cn1nc(Nc2cc(C(=O)NCCN3CCCC3(C)C)ccc2F)c2cnc(Nc3ccncn3)nc21 [Example 52, N-(2-(2,2-dimethylpyrrolidin-1-yl)ethyl)-4-fluoro-3-((1-methyl-6-(pyrimidin-4-ylamino)-1H-pyrazolo[3,4-d]pyrimidin-3-yl)amino)benzamide] | 160 | 4.71 | > 2500 | 67
5 | Cc1ccc(C(=O)NCCN2CCC3(CC3)C2)cc1Nc1nn(C)c2nc(Nc3cnn(C)c3)ncc12 [Example 67, N-(2-(5-azaspiro[2.4]heptan-5-yl)ethyl)-4-methyl-3-((1-methyl-6-((1-methyl-1H-pyrazol-4-yl)amino)-1H-pyrazolo[3,4-d]pyrimidin-3-yl)amino)benzamide] | 1.9 | 0.22 | 1660 | 9.8
6 | CC[C@@H]1CN(CCNC(=O)c2cnc(C)c(Nc3nn(C)c4nc(Nc5cnn(C)c5)ncc34)c2)CCO1 [Example 88, (R)—N-(2-(2-ethylmorpholino)ethyl)-6-methyl-5-((1-methyl-6-((1-methyl-1H-pyrazol-4-yl)amino)-1H-pyrazolo[3,4-d]pyrimidin-3-yl)amino)nicotinamide] | 3 | 0.35 | > 7500 | 22.3
7 | Cc1ncc(C(=O)NCCN2CCCC2(C)C)cc1Nc1nn(C)c2nc(Nc3cccnc3)ncc12 [Example 42, N-(2-(2,2-dimethylpyrrolidin-1-yl)ethyl)-6-methyl-5-((1-methyl-6-(pyridin-3-ylamino)-1H-pyrazolo[3,4-d]pyrimidin-3-yl)amino)nicotinamide] | 3.9 | 0.6 | > 10000 | 33.2
8 | CC(=O)Nc1cc(Nc2ncc3c(Nc4cc(C(=O)NCCN5CCCC5(C)C)cnc4C)nn(C)c3n2)ccn1 [Example 100, 5-((6-((2-acetamidopyridin-4-yl)amino)-1-methyl-1H-pyrazolo[3,4-d]pyrimidin-3-yl)amino)-N-(2-(2,2-dimethylpyrrolidin-1-yl)ethyl)-6-methylnicotinamide] | 2.8 | 0.39 | 5420 | 93.1
9 | Cc1ncc(C(=O)NCCN2C[C@H](C)O[C@@H](C)C2)cc1Nc1nn(C)c2nc(Nc3cnn(C)c3)ncc12 (relative stereo) [Example 92, N-(2-(trans-2,6-dimethylmorpholino)ethyl)-6-methyl-5-((1-methyl-6-((1-methyl-1H-pyrazol-4-yl)amino)-1H-pyrazolo[3,4-d]pyrimidin-3-yl)amino)nicotinamide] | 4.3 | 0.69 | 6700 | 22.8
